Read-outs that look alike come from different tables or passages of the source.
How the values were obtained:
hOATP1B3 = target: T1, hOATP1B3 (Homo sapiens, UniProt Q9NPD5); assay: Inhibition of OATP1B3-mediated hydroxyurea accumulation in oocytes; format: cell-based; details: for Hydroxyurea accumulation in OATP1B3 oocytes, % of accumulation without inhibitor: 1mM inhibitor co-incubation, in 1% DMSO
T1 sequence (Q9NPD5 1-702): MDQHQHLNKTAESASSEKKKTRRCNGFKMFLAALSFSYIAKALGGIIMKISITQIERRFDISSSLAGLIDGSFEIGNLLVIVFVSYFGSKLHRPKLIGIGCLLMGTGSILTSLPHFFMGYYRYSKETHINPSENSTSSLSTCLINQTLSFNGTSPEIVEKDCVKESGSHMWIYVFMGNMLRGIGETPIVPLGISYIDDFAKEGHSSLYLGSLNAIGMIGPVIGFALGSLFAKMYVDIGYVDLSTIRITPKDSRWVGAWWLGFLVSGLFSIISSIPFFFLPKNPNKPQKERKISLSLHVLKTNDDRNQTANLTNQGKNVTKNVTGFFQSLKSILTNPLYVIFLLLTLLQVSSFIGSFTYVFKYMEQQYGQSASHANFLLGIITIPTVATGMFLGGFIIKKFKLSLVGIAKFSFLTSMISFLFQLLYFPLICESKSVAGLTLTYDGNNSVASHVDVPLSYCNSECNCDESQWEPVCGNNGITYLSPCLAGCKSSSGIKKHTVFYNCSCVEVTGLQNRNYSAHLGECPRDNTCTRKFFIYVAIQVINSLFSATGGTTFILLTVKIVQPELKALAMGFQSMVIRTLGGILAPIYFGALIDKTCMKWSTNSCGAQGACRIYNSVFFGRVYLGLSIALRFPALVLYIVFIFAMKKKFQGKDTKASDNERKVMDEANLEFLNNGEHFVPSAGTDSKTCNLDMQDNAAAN

[1] = PAMPA
UTB = target: T2, UTB (Homo sapiens, UniProt Q13336); assay: Transcellular transport assay in LLC-PK1 cells overexpressing UTB; format: cell-based; details: 1mM dimethylurea
T2 sequence (Q13336 1-389): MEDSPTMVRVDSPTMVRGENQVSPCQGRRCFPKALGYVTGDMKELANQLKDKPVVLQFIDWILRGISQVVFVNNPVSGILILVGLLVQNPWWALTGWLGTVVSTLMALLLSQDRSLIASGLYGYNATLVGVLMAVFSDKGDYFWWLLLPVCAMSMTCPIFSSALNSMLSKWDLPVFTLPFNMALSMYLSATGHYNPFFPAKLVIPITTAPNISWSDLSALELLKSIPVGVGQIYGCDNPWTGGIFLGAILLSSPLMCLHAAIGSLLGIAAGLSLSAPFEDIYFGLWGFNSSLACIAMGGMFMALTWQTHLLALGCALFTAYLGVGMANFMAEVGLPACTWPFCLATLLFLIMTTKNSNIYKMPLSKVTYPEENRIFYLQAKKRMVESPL

human OCTN2 = target: T3, human OCTN2 (Homo sapiens, UniProt O76082); assay: Hydroxyurea uptake in HEK293 cells overexpressing hOCTN2; format: cell-based; details: percentage of control cells (100%)
T3 sequence (O76082 1-557): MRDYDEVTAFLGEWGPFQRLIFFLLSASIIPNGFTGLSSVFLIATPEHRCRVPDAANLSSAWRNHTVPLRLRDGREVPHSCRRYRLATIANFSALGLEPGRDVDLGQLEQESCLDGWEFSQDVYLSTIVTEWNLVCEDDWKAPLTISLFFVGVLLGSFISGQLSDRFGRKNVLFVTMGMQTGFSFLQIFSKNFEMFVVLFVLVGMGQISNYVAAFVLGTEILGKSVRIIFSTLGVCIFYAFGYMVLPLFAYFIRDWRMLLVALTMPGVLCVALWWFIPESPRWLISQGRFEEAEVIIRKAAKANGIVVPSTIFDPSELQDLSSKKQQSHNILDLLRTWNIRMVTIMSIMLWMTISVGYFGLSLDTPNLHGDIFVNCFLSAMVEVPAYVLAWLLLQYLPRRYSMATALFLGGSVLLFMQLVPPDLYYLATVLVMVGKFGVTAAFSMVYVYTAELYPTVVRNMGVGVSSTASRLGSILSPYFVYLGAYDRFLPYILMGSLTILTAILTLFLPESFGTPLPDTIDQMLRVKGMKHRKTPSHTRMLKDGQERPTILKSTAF

human OCTN1 = target: T4, human OCTN1 (Homo sapiens, UniProt Q9H015); assay: Hydroxyurea uptake in HEK293 cells overexpressing hOCTN1; format: cell-based; details: percentage of control cells (100%)
T4 sequence (Q9H015 1-551): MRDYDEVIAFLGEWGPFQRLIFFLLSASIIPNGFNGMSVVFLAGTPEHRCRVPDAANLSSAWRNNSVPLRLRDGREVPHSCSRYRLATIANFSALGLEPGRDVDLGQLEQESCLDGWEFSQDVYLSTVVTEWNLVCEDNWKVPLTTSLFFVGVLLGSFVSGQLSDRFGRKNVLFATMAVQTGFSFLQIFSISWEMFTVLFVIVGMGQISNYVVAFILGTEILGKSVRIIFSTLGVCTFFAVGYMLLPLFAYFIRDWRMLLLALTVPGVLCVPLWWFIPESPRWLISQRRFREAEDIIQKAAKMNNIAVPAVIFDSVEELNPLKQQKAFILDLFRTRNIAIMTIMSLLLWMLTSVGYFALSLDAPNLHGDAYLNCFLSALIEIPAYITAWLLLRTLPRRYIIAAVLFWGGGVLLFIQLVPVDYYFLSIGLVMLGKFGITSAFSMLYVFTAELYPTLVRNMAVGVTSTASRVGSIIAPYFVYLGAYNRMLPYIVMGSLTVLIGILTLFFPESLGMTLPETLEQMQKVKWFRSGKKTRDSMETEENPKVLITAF

[2] = humans, oral; cited from earlier work
[3] = Parallel artificial membrane permeability assay; details: 4% lipid bilayer; 16-hours incubation at room temperature

CO[C@H]1/C=C/O[C@@]2(C)Oc3c(C)c(O)c4c(O)c(c(/C=N/N5CCN(C)CC5)c(O)c4c3C2=O)NC(=O)/C(C)=C\C=C\[C@H](C)[C@H](O)[C@@H](C)[C@@H](O)[C@@H](C)[C@H](OC(C)=O)[C@@H]1C [rifampin]
Hydroxyurea accumulation in OATP1B3 oocytes, % of accumulation without inhibitor (hOATP1B3): 30%

CN(Cc1cnc2nc(N)nc(N)c2n1)c1ccc(C(=O)N[C@@H](CCC(=O)O)C(=O)O)cc1 [methotrexate]
lowering of hydroxyurea accumulation in OATP1B3 oocytes (hOATP1B3; 1mM co-incubation in the absence of DMSO): 50% | 10 + logPe ([1]; 16 h): 2.022

dimethylurea
effect on hydroxyurea transport (UTB): marginally inhibited

NC(=O)NO [hydroxyurea]
hydroxyurea uptake compared to controls (human OCTN2): 113% | hydroxyurea uptake compared to controls (human OCTN1): 130% | 10 + logPe [1]: 2.597 | estimated permeability rate (log Pe + 10) [1]: 2.385 | Tmax [2]: 1.22 h | bioavailability [2]: nearly complete

NC(N)=O [urea]
10 + logPe [1]: 2.712 | estimated permeability rate (log Pe + 10) [1]: 2.335

Cc1ncc2n1-c1ccc(Cl)cc1C(c1ccccc1F)=NC2 [midazolam]
10 + logPe [3]: 4.707

C[C@@H]1O[C@@H](O[C@H]2[C@H](Oc3cc(O)c4c(c3)O[C@H](c3ccc(O)cc3)CC4=O)O[C@H](CO)[C@@H](O)[C@@H]2O)[C@H](O)[C@H](O)[C@H]1O [naringin]
Hydroxyurea accumulation in OATP1B3 oocytes, % of accumulation without inhibitor (hOATP1B3): 30%

— paper PMC4739778 (Experimental hematology, 2011)
